Laboratory results from ChEMBL document CHEMBL3632477 (2015).
pEC50: −log10 of the molar value. Where a SMILES comes first, the peptide text is derived from it. Bridges are numbered along the chain shown (N, C = ends). [ ]: non-standard residue; d: D form. ξ: configuration not given here. Bip(2'-Et-4'-OMe) = CCc1cc(OC)ccc1-c1ccc(C[C@H](N)C(=O)O)cc1; αMePhe(2,6-F2) = C[C@](N)(Cc1c(F)cccc1F)C(=O)O; Bip = N[C@@H](Cc1ccc(-c2ccccc2)cc1)C(=O)O; αMePhe(2-F) = C[C@](N)(Cc1ccccc1F)C(=O)O; ξαMePhe(2-F) = CC(N)(Cc1ccccc1F)C(=O)O; hhPhe = N[C@@H](CCCc1ccccc1)C(=O)O; αMeF = C[C@](N)(Cc1ccccc1)C(=O)O; Pen = CC(C)(S)[C@H](N)C(=O)O; Aib = CC(C)(N)C(=O)O

biological target: Glucagon-like peptide 1 receptor (Homo sapiens, UniProt P43220); assay: Agonist activity at human GLP-1R expressed in CHO-K1 cells assessed as increase in cAMP level incubated for 30 mins; assay type: functional, cell-based
Sequence (P43220 whole entry): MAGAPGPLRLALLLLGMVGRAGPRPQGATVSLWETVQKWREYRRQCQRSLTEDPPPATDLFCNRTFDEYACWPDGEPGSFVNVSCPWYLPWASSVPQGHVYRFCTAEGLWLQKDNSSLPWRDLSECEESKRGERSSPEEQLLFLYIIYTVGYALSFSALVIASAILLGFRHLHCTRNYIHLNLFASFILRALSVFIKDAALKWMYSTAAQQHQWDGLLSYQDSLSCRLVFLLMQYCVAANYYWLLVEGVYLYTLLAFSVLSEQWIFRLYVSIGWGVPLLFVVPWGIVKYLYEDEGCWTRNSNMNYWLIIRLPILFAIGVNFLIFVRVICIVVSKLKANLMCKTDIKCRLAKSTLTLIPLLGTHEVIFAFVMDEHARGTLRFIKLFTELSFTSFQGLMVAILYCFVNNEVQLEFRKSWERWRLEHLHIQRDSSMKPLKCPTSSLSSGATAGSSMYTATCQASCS

In order of falling pEC50:
1. CC(C)C[C@@H]1NC(=O)[C@H](Cc2ccccc2)NC(=O)[C@H](CC(N)=O)NC(=O)[C@H](CCCNC(=N)N)NC(=O)[C@H](CCCCN)NC(=O)[C@@H]2CSSC[C@@H](C(N)=O)NC(=O)[C@H](CSSC[C@H](NC(=O)[C@@H](N)CO)C(=O)N[C@@H](CO)C(=O)N2)NC1=O (H-SCSCKRNFLCC-NH2; disulfide 2-10, 4-11)  9.33
2. CCc1cc(OC)ccc1-c1ccc(C[C@@H]2NC(=O)[C@H](CC(=O)O)NC(=O)[C@H](CO)NC(=O)[C@H]([C@@H](C)O)NC(=O)[C@](C)(Cc3ccccc3)NC(=O)[C@H]([C@@H](C)O)NC(=O)CNC(=O)[C@H](CCC(=O)O)NC(=O)[C@@H]3CCCN3C(=O)[C@H](Cc3cnc[nH]3)NC(=O)[C@H](CO)NC(=O)[C@@H]3CSSC[C@H](NC(=O)[C@H](CCCc4ccccc4)NC2=O)C(=O)NCC(=O)N[C@@H](Cc2ccc(-c4ccccc4)cc2)C(=O)N[C@@H](C)C(=O)N[C@@H](C)C(=O)NCC(=O)NCC(=O)NCC(=O)N[C@@H](C)C(=O)N3)cc1 (cyclo(AAGGGACSHPEGT[αMeF]TSD[Bip(2'-Et-4'-OMe)][hhPhe]CG[Bip]); disulfide 7-20)  6.44
3. CCc1cc(OC)ccc1-c1ccc(C[C@@H]2NC(=O)[C@H](CC(=O)O)NC(=O)[C@H](CO)NC(=O)[C@H]([C@@H](C)O)NC(=O)[C@H](Cc3ccccc3)NC(=O)[C@H]([C@@H](C)O)NC(=O)CNC(=O)[C@H](CCC(=O)O)NC(=O)[C@@H]3CCCN3C(=O)[C@H](Cc3cnc[nH]3)NC(=O)[C@H](CO)NC(=O)[C@@H]3CSSC[C@H](NC(=O)[C@H](CCCc4ccccc4)NC2=O)C(=O)NCC(=O)NCC(=O)N[C@@H](C)C(=O)N[C@@H](C)C(=O)NCC(=O)NCC(=O)NCC(=O)N[C@@H](C)C(=O)N3)cc1 (cyclo(AAGGGACSHPEGTFTSD[Bip(2'-Et-4'-OMe)][hhPhe]CGG); disulfide 7-20)  6.41
4. CCc1cc(OC)ccc1-c1ccc(C[C@@H]2NC(=O)[C@H](CC(=O)O)NC(=O)[C@H](CO)NC(=O)[C@H]([C@@H](C)O)NC(=O)[C@](C)(Cc3c(F)cccc3F)NC(=O)[C@H]([C@@H](C)O)NC(=O)CNC(=O)[C@H](CCC(=O)O)NC(=O)[C@@H]3CCCN3C(=O)[C@H](Cc3cnc[nH]3)NC(=O)[C@H](CO)NC(=O)[C@@H]3CSSC[C@H](NC(=O)[C@H](CCCc4ccccc4)NC2=O)C(=O)NCC(=O)NCC(=O)N[C@@H](C)C(=O)N[C@@H](C)C(=O)NCC(=O)NCC(=O)NCC(=O)N[C@@H](C)C(=O)N3)cc1 (cyclo(AAGGGACSHPEGT[αMePhe(2,6-F2)]TSD[Bip(2'-Et-4'-OMe)][hhPhe]CGG); disulfide 7-20)  6.37
5. CCc1cc(OC)ccc1-c1ccc(C[C@@H]2NC(=O)[C@H](CC(=O)O)NC(=O)[C@H](CO)NC(=O)[C@H]([C@@H](C)O)NC(=O)[C@](C)(Cc3c(F)cccc3F)NC(=O)[C@H]([C@@H](C)O)NC(=O)CNC(=O)[C@H](CCC(=O)O)NC(=O)[C@@H]3CCCN3C(=O)[C@H](Cc3cnc[nH]3)NC(=O)[C@H](CO)NC(=O)[C@@H]3CSSC[C@H](NC(=O)[C@H](CCCc4ccccc4)NC2=O)C(=O)NCC(=O)N[C@@H](Cc2ccc(-c4ccccc4)cc2)C(=O)N[C@@H](C)C(=O)N[C@@H](C)C(=O)NCC(=O)NCC(=O)NCC(=O)N[C@@H](C)C(=O)N3)cc1 (cyclo(AAGGGACSHPEGT[αMePhe(2,6-F2)]TSD[Bip(2'-Et-4'-OMe)][hhPhe]CG[Bip]); disulfide 7-20)  6.33
6. CCc1cc(OC)ccc1-c1ccc(C[C@@H]2NC(=O)[C@H](CC(=O)O)NC(=O)[C@H](CO)NC(=O)[C@H]([C@@H](C)O)NC(=O)[C@](C)(Cc3ccccc3F)NC(=O)[C@H]([C@@H](C)O)NC(=O)CNC(=O)[C@H](CCC(=O)O)NC(=O)[C@@H]3CCCN3C(=O)[C@H](Cc3cnc[nH]3)NC(=O)[C@H](CO)NC(=O)[C@@H]3CSSC[C@H](NC(=O)[C@H](CCCc4ccccc4)NC2=O)C(=O)NCC(=O)NCC(=O)N[C@@H](C)C(=O)N[C@@H](C)C(=O)NCC(=O)NCC(=O)NCC(=O)N[C@@H](C)C(=O)N3)cc1 (cyclo(AAGGGACSHPEGT[αMePhe(2-F)]TSD[Bip(2'-Et-4'-OMe)][hhPhe]CGG); disulfide 7-20)  6.00
7. CCc1cc(OC)ccc1-c1ccc(C[C@@H]2NC(=O)[C@H](CC(=O)O)NC(=O)[C@H](CO)NC(=O)[C@H]([C@@H](C)O)NC(=O)[C@](C)(Cc3c(F)cccc3F)NC(=O)[C@H]([C@@H](C)O)NC(=O)CNC(=O)[C@H](CCC(=O)O)NC(=O)[C@@H]3CCCN3C(=O)[C@H](Cc3cnc[nH]3)NC(=O)[C@H](CO)NC(=O)[C@@H]3CSSC[C@H](NC(=O)[C@H](CCCc4ccccc4)NC2=O)C(=O)NCC(=O)NCC(=O)N[C@@H](C(C)C)C(=O)N[C@@H](C(C)C)C(=O)N[C@@H](C(C)C)C(=O)NCC(=O)N[C@@H](C(C)C)C(=O)N[C@@H](C(C)C)C(=O)N3)cc1 (cyclo(CGGVVVGVVCSHPEGT[αMePhe(2,6-F2)]TSD[Bip(2'-Et-4'-OMe)][hhPhe]); disulfide 1-10)  6.00
8. CCc1cc(OC)ccc1-c1ccc(C[C@@H]2NC(=O)[C@H](CC(=O)O)NC(=O)[C@H](CO)NC(=O)[C@H]([C@@H](C)O)NC(=O)[C@](C)(Cc3c(F)cccc3F)NC(=O)[C@H]([C@@H](C)O)NC(=O)CNC(=O)[C@H](CCC(=O)O)NC(=O)C(C)(C)NC(=O)[C@H](Cc3cnc[nH]3)NC(=O)[C@H](CO)NC(=O)[C@@H]3CSSC[C@H](NC(=O)[C@H](CCCc4ccccc4)NC2=O)C(=O)NCC(=O)NCC(=O)N[C@@H](C)C(=O)N[C@@H](C)C(=O)NCC(=O)NCC(=O)NCC(=O)N[C@@H](C)C(=O)N3)cc1 (cyclo(AAGGGACSH[Aib]EGT[αMePhe(2,6-F2)]TSD[Bip(2'-Et-4'-OMe)][hhPhe]CGG); disulfide 7-20)  5.85
9. CCc1cc(OC)ccc1-c1ccc(C[C@@H]2NC(=O)[C@H](CC(=O)O)NC(=O)[C@H](CO)NC(=O)[C@H]([C@@H](C)O)NC(=O)[C@](C)(Cc3ccccc3)NC(=O)[C@H]([C@@H](C)O)NC(=O)CNC(=O)[C@H](CCC(=O)O)NC(=O)[C@@H]3CCCN3C(=O)[C@H](Cc3cnc[nH]3)NC(=O)[C@H](CO)NC(=O)[C@@H]3CSSC[C@H](NC(=O)[C@H](CCCc4ccccc4)NC2=O)C(=O)NCC(=O)NCC(=O)N[C@@H](C)C(=O)N[C@@H](C)C(=O)NCC(=O)NCC(=O)NCC(=O)N[C@@H](C)C(=O)N3)cc1 (cyclo(AAGGGACSHPEGT[αMeF]TSD[Bip(2'-Et-4'-OMe)][hhPhe]CGG); disulfide 7-20)  5.70
10. CCc1cc(OC)ccc1-c1ccc(C[C@@H]2NC(=O)[C@H](CC(=O)O)NC(=O)[C@H](CO)NC(=O)[C@H]([C@@H](C)O)NC(=O)[C@](C)(Cc3c(F)cccc3F)NC(=O)[C@H]([C@@H](C)O)NC(=O)CNC(=O)[C@H](CCC(=O)O)NC(=O)[C@@H]3CCCN3C(=O)[C@H](Cc3cnc[nH]3)NC(=O)[C@H](CO)NC(=O)[C@H](C(C)(C)S)NC(=O)[C@H](C)NC(=O)CNC(=O)CNC(=O)CNC(=O)[C@H](C)NC(=O)[C@H](C)NC(=O)CNC(=O)CNC(=O)[C@H](C(C)(C)S)NC(=O)[C@H](CCCc3ccccc3)NC2=O)cc1 (cyclo(AAGGGA[Pen]SHPEGT[αMePhe(2,6-F2)]TSD[Bip(2'-Et-4'-OMe)][hhPhe][Pen]GG))  5.70
11. CCc1cc(OC)ccc1-c1ccc(C[C@@H]2NC(=O)[C@H](CC(=O)O)NC(=O)[C@H](CO)NC(=O)[C@H]([C@@H](C)O)NC(=O)[C@](C)(Cc3ccccc3)NC(=O)[C@H]([C@@H](C)O)NC(=O)CNC(=O)[C@H](CCC(=O)O)NC(=O)[C@@H]3CCCN3C(=O)[C@H](Cc3cnc[nH]3)NC(=O)[C@H](CO)NC(=O)[C@@H]3CSSC[C@H](NC(=O)[C@H](CCCc4ccccc4)NC2=O)C(=O)NCC(=O)NCC(=O)N[C@@H](CC(C)C)C(=O)N[C@@H](CC(C)C)C(=O)N[C@@H](CC(C)C)C(=O)NCC(=O)N[C@@H](CC(C)C)C(=O)N[C@@H](CC(C)C)C(=O)N3)cc1 (cyclo(CGGLLLGLLCSHPEGT[αMeF]TSD[Bip(2'-Et-4'-OMe)][hhPhe]); disulfide 1-10)  5.55
12. CCc1cc(OC)ccc1-c1ccc(C[C@@H]2NC(=O)[C@H](CC(=O)O)NC(=O)[C@H](CO)NC(=O)[C@@H]3CSSC[C@@H](C(=O)O)NC(=O)[C@H](CSSC[C@H](NC(=O)CNC(=O)[C@H](CCC(=O)O)NC(=O)C(C)(C)NC(=O)[C@@H](N)Cc4cnc[nH]4)C(=O)NC(C)(Cc4ccccc4F)C(=O)N3)NC(=O)[C@H](CC(C)C)NC(=O)[C@H](CCCc3ccccc3)NC2=O)cc1 (some centres not stated) (H-H[Aib]EGC[ξαMePhe(2-F)]CSD[Bip(2'-Et-4'-OMe)][hhPhe]LCC-OH; disulfide 5-13, 7-14)  5.30
